# In patent publication US20110003867A1, “NOVEL 2-ETHYL-METHYL-AMINO-3-AMIDO-6-AMINO-PYRIDINE DERIVATIVES USEFUL AS POTASSIUM CHANNEL ACTIVATORS” (NeuroSearch A/S, priority 2007, published 2011):
# Molecular target: T1, human Kv72+3 channels (Homo sapiens, UniProt O43525+O43526)
# T1 construct: expressed in transfected cells
# Test: Patch-clamp on HEK293 cell lines stably expressing human Kv7.2+3 channels
# Assay type: cell-based
# Settings: conc. 0.03 μM, −30 mV, 20 ms; baseline current defined as 100%; HEK293 cells
# Excerpt: The effect obtained by these channel activators is described as a percentage increase in baseline current at a given concentration. The baseline current is defined as 100%, and an increase in current is expressed relative to this, i.e. an increase from 1 nA to 1.2 nA is reported as 120%.
row,SMILES,I^K(%) increase in baseline current [%]
1,"CCN(C)c1nc(NCC(C)C)ccc1NC(=O)Cc1cc(F)cc(F)c1 [Compound 11, 2-(3,5-Difluoro-phenyl)-N-[2-(ethyl-methyl-amino)-6-isobutylamino-pyridin-3-yl]-acetamide]",548
2,"CN(C)c1nc(NCc2ccc(F)cc2)ccc1NC(=O)Cc1cc(F)cc(F)c1 [Compound 1, N-[2-Dimethylamino-6-(4-fluoro-benzylamino)-pyridin-3-yl]-2-(3,5-difluoro-phenyl)-acetamide]",685
3,"CCN(C)c1nc(NCc2ccc(F)cc2)ccc1NC(=O)Cc1ccc(C(F)(F)F)c(F)c1 [Compound 3, N-[2-Ethylnnethylamino-6-(4-fluoro-benzylamino)-pyridin-3-yl]-2-(3-fluoro-4-trifluoromethyl-phenyl)-acetamide]",268
4,"CCN(C)c1nc(NCc2ccc(F)cc2)ccc1NC(=O)CC(C)(C)C [Compound 8, N-[2-Ethylmethylamino-6-(4-fluoro-benzylamino)-pyridin-3-yl]-3,3-dimethyl-butyramide]",105
5,"CCN(C)c1nc(NCc2ccc(F)cc2)ccc1NC(=O)[C@@H]1C[C@H]1c1ccccc1 (relative stereo) [Compound 6, trans-2-Phenyl-cyclopropanecarboxylic acid [2-Ethylmethylamino-6-(4-fluoro-benzylamino)-pyridin-3-yl]-amide]",285
